Test: Solubility in solvents
Assay type: physicochemical

Measured: Solubility

COC(=O)Nc1nc2ccccc2[nH]1 [Unmodified Mold-Proof Agent, methy benzimidazol-2-ylcarbamate]
<0.3%: Dimethylformamide (DMF) | Ethyl acetate (EAC) | Methanol (ME) | Methyl-Ethyl Ketone (MEK) | N,N-dimethylacetamide (DMAC)

— patent publication US20080125516A1, “Dispersible long-acting mold-proof polyurethanes or urethane adducts and mold-proof materials made thereof” (HEADWAY ADVANCED MATERIALS INC., priority 2006, published 2008)
